The test system of assay [1] is resistant mutant culture cells. Briefly: Growth of bispyribac-sodium resistant rice culture cells (resistant mutant) with herbicide (relative wet weight). The class given is cell-based, Oryza sativa var. Kinmaze. As to the method:
Subsequently, the resulting plurality of cell lines were cultured while elevating the concentration of bispyribac-sodium in an orderly manner. […] The bispyribac-sodium resistant culture cells (hereinafter referred to as resistant mutant) were sub-cultured on MS-2,4-D solid media supplemented with 100 μM bispyribac-sodium. Part of the sub-cultured resistant mutant was sampled, added into MS-2,4-D liquid media not supplemented with bispyribac-sodium, and then subjected to suspended cell culture at a cycle of 8 to 10 days.
Approximately 1.5 g (wet weight) of the resistant mutant was transplanted in 200 ml of a Erlenmeyer flask supplemented with 50 ml of a MS-2,4-D liquid medium and bispyribac-sodium at an appropriate concentration, followed by culturing at approximately 27° C. for an appropriate period. The wet weight of the callus was measured periodically. The relative amount of increase was determined based on the wet weight of the transplanted resistant mutant. In addition, the experiment was performed three times with different bispyribac-sodium concentrations, and the standard error was calculated. […] As a control, a similar experiment was conducted using the wild type (Kinmaze).
The growth rates of the wild type and the resistant mutant were measured as described above except for the use of chlorsulfuron instead of bispyribac-sodium.

A further assay deals with T1, W548L mutant ALS (Oryza sativa subsp. japonica, UniProt Q6K2E8, W548L).
T1 construct: one type of cDNA containing a full length ALS gene could be obtained from a cDNA library derived from the wild type; made in house; host or cells: E. coli JM 109, pGEX-2T backbone (pGEX-2T-wALS); crude enzyme solution
The assay is described as follows: Herbicide sensitivity of crude ALS with W548L mutation only, 1 mM valine. The format is biochemical, rice. The settings on record: crude enzyme. The procedure: A plasmid having W548L mutant ALS gene or a plasmid having S627I mutant ALS gene was transformed into E. coli strain JM 109. The colonies obtained from transformation were subjected to liquid culture, expression of GST induction protein was induced in the same manner as in Examples 4 and 5, a crude enzyme solution was prepared, and then herbicide sensitivity of ALS was examined in the presence of 1 mM valine.

The target in another assay is mutant ALS protein (Oryza sativa subsp. japonica, UniProt Q6K2E8, S627I/W548L). Briefly: Herbicide sensitivity of crude mutant ALS (W548L and S627I) expressed in E. coli, in presence of valine. The class given is biochemical, rice. Set-up: the cDNA containing a full length mutant ALS gene could be obtained; made in house; host or cells: E. coli JM 105, pGEX-4T-3; crude enzyme solution. The conditions noted are these: crude enzyme from E. coli, valine added. The procedure:
Preparation and purification of ALS from E. coli were performed by the following method. First, a pellet of the transformant E. coli stored at −80° C. was suspended in ALS extraction buffer (potassium phosphate buffer (pH 7.5) containing 30% glycerol and 0.5 mM MgCl2). Specifically, 2.5 ml of the buffer was added to the pellet obtained from 50 ml of the culture solution. The suspension was subjected to ultrasonication (Heat Systems-Ultrasonics, Sonicator W-225R, micro chip, output control 8, interval of approximately 1 sec, twice (40 sec each)), and subjected to centrifugation at 15000×g, 4° C. for 20 min, thereby obtaining the supernatant as a crude enzyme solution.
Herbicide sensitivity of mutant ALS protein was examined using the crude enzyme solution obtained in Example 4. Herbicide sensitivity test was performed in the manner same as that in Example 2. In the herbicide sensitivity test, three herbicides, bispyribac-sodium, pyrithiobac-sodium, and pyriminobac were used as PC herbicides; four drugs, chlorsulfuron, bensulfuron-methyl, pyrazosulfuron-ethyl and imazosulfuron were used as sulfonylurea herbicides; and two drugs, imazaquin, and imazapyr were used as imidazolinon herbicides.
Solutions containing these herbicides at certain concentrations (bispyribac-sodium and pyrithiobac-sodium were aqueous solutions, others were acetone solutions) were added to reaction solutions before addition of the mutant ALS protein. The final concentration of acetone was 1%. In addition, since an ALS protein from the rice cDNA expressed within E. coli is insusceptible to valine (Kil et al., J. Biochem. Mol. Biol. 31 287–295, 1998), a herbicide sensitivity test was performed under conditions in which ALS activity derived from E. coli was inhibited with valine.

Each structure is given as a SMILES string.

Chain of mutant ALS protein (Q6K2E8 44-644 W548L/S627I): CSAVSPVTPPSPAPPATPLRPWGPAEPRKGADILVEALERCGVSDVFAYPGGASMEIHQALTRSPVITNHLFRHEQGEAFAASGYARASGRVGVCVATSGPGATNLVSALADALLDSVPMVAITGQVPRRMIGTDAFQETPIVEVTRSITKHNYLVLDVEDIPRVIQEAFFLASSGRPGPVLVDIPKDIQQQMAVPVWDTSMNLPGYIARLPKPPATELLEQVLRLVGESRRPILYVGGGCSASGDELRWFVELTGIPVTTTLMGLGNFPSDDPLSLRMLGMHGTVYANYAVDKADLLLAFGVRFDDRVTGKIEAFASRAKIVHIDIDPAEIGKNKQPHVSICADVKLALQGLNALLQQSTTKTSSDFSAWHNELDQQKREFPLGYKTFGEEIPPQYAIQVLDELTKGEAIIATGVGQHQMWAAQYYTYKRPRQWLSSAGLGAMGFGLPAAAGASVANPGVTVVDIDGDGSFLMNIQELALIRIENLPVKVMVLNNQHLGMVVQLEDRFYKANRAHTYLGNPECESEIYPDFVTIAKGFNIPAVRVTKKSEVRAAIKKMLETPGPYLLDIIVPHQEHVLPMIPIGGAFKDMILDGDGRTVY
T1 sequence (Q6K2E8 44-644 W548L): as the sequence (Q6K2E8 44-644 W548L/S627I) above, with I584S counted along it

As for `COc1nc(C)nc(NC(=O)NS(=O)(=O)c2ccccc2Cl)n1` [Chlorsulfuron, chlorsulfuron], the “growth of the resistant mutant (relative weight on day 9)” value in assay [1] (1 μM chlorsulfuron) is “strongly inhibited”. For the same compound, the “resistance imparted by W548L mutation alone” value on W548L mutant ALS is given as “imparted resistance”. Besides, the “resistance of the mutant ALS protein to herbicide compared to wild type ALS protein” value at mutant ALS protein is recorded as “moderate”.

As for `COc1cc(OC)nc(Oc2cccc(Oc3nc(OC)cc(OC)n3)c2C(=O)[O-])n1.[Na+]` [Bispyribac-sodium, bispyribac-sodium], in assay [1] (10 μM bispyribac-sodium), the “growth of the resistant mutant (relative weight on day 8)” value was “almost none of the growth of the resistant mutant was affected”. The “proliferation of resistant cell lines in the presence of herbicide” value in assay [1] (100 μM bispyribac-sodium) is “can proliferate”. For the same compound, the “resistance imparted by W548L mutation alone” value on W548L mutant ALS is on record as “imparted resistance”. Besides, on mutant ALS protein, the “mutant ALS activity in the presence of herbicide” value was “not inhibited at all” and the “resistance of the mutant ALS protein to herbicide compared to wild type ALS protein” value was “best resistance”.

The values above are taken from patent US7119256B2, “Gene encoding acetolactate synthase” (priority 2000, dated 2006).
